Assay results from US6978724B2, “Copper complexes and their use as wood preservatives” (E.I. Du Pont de Nemours and Company, priority 2002, dated 2005).

Experiments:
white, hairy fungus = test: Soil burial of pressure-imbibed SYP wooden stakes in flower pots, visual examination; conditions: SYP stakes imbibed at 5000 ppm copper, 155 psi; about 3/4 buried in moist non-sterile soil, greenhouse at 78° C, after 5 months
Description: Two pre-weighed SYP wooden stakes (¾″×¾″×12″ or ¾″×1½″×12″) were loaded into a hastaloy pressure vessel and covered with imbibement solution at room temperature. The imbibement solution was prepared by diluting the preparations given in Example 1 with water to a copper concentration of 5000 ppm. The vessel was evacuated for 5 min and then pressured with nitrogen for 1 h at 155 psi at which time the pressure was removed. The stakes were then removed from the vessel and allowed to drip dry. Weights were then recorded to insure that the wood was penetrated with the imbibement solution. The stakes were then dried overnight in a convection oven at 55° C. Weights of the dried stakes were then recorded.
These treated stakes along with control (untreated) stakes were labeled and buried in a flower pot with about ¾ of the wood below the surface of non-sterile soil. The flower pots were kept moist in a greenhouse at […]. After 5 months, the stakes were visually examined.

non-sterile soil = test: Ground burial exposure of treated newsprint and cardboard; conditions: newsprint soaked 5 min in 5000 ppm copper solution; buried in moist non-sterile garden soil 90 days, 18 to 24° C
Description: Cellulosic materials, including newsprint and cardboard samples, treated with copper amidoxime or hydroxamic acid complexes are preserved after being buried in non-sterile soil for 90 days. (Procedure adapted from: Hussey, S. W., More Brownie Girl Scout Try-Its, Girl Scouts of the U.S.A., 81 (1989).) In the same soil, untreated newsprint and cardboard samples were consumed microbially resulting in disintegration of the materials. Given that the composition of mechanically pulped newsprint closely resembles that of coniferous trees (Table 1, U.S. Pat. No. 5,582,682), this method serves as a rapid test for screening for preservatives of wood.
The imbibement solution was prepared by diluting the preparations given in Example 1 with water to a copper concentration of 5000 ppm. Samples of newsprint were soaked in solutions of the copper complexes for 5 min. The paper was removed from the imbibing solution, blotted nearly dry, air-dried overnight, and then placed in sacks made from nylon stockings. The sacks were labeled and closed with nylon twist-ties. Control samples of untreated newsprint were placed in similar nylon sacks. The sacks of treated and untreated newsprint were buried in clay pots containing moist, non-sterile garden soil for 90 days and maintained at approximately 18 to 24° C. After 90 days the sacks were unburied, opened, and the contents examined for decomposition. […]

Substance: Copper Complex of the Amidoxime of Sorbitol [Example 1]
- visual examination of stakes for covering of white, hairy fungus below the soil surface (white, hairy fungus): showed no such covering
- decomposition of treated newsprint (non-sterile soil): still intact and the printing was still legible
